tested on: IL-1b; assay: Human Monocyte IL-1b Assay; format: cell-based; conditions: Homo sapiens, Monocyte, fresh human whole blood; compound 0.5 h, 100 ng/mL LPS 3.5 h at 37° C., 5 mM ATP 45 min; IL-1b in supernatant by ELISA
Description: Example 46: Human Monocyte IL-1b Assay
Serially diluted testing compounds were incubated with […] of fresh human whole blood for 0.5 hours. Cells were primed with 100 ng/mL lipopolysaccharide (LPS) for 3.5 hours at 37° C. followed by stimulation with 5 mM ATP for an additional 45 minutes. The concentration of IL-1b concentration in the supernatant was determined with commercially available ELISA kits. Negative controls are wells without stimulation, while positive controls are wells with stimulation but only DMSO without compounds added. After background subtraction, compound treatment wells were then normalized to the positive controls for IC50 calculations.

Row | Structure (SMILES) | IC50 [µM]
1 | Cc1cc([C@@H](O)C2CN3CCC2CC3)nnc1-c1ccc(C(F)(F)F)cc1O (stereo partly drawn) [Compound 28B, 2-(6-((1S)-hydroxy(quinuclidin-3-yl)methyl)-4-methylpyridazin-3-yl)-5-(trifluoromethyl)phenol] | 0.5 to 3
2 | COc1cc(C(F)(F)F)ccc1-c1nnc(C(O)C2CN(C)C2)cc1C (stereo not shown) [Compound 30, (6-(2-methoxy-4-(trifluoromethyl)phenyl)-5-methylpyridazin-3-yl)(1-methylazetidin-3-yl)methanol] | 3 to 10
3 | Cc1cc(C(O)C2CCC3CCC2N3C)nnc1-c1ccc(C(F)(F)F)cc1O (stereo not shown) [Compound 34, 2-(6-(hydroxy(8-methyl-8-azabicyclo[3.2.1]octan-2-yl)methyl)-4-methylpyridazin-3-yl)-5-(trifluoromethyl)phenol] | < 0.5
4 | Cc1cc(C(O)C23CC(CN(C)C2)C3)nnc1-c1ccc(C(F)(F)F)cc1O (stereo not shown) [Compound 35, 2-(6-(hydroxy(3-methyl-3-azabicyclo[3.1.1]heptan-1-yl)methyl)-4-methylpyridazin-3-yl)-5-(trifluoromethyl)phenol] | 0.5 to 3

The next lines start with the values.

Row | IC50 [µM] | Structure (SMILES)
5 | < 0.5 | Cc1cc(C(O)C2CN(C)C2)nnc1-c1ccc(C(F)(F)F)cc1O (stereo not shown) [Compound 31, 2-(6-(hydroxy(1-methylazetidin-3-yl)methyl)-4-methylpyridazin-3-yl)-5-(trifluoromethyl)phenol]
6 | 0.5 to 3 | Cc1cc(C(O)C2CCC3CCCN3C2)nnc1-c1ccc(C(F)(F)F)cc1O (stereo not shown) [Compound 38, 2-(6-(hydroxy(octahydroindolizin-6-yl)methyl)-4-methylpyridazin-3-yl)-5-(trifluoromethyl)phenol]
7 | < 0.5 | Cc1cc(C(O)C2CCCCN2C)nnc1-c1ccc(C(F)(F)F)cc1O (stereo not shown) [Compound 39, 2-(6-(hydroxy(1-methylpiperidin-2-yl)methyl)-4-methylpyridazin-3-yl)-5-(trifluoromethyl)phenol]
8 | < 0.5 | Cc1cc([C@H](O)[C@@H]2CCCNC2)nnc1-c1ccc(C(F)(F)F)cc1O [Compound 40, 2-(6-((R)-hydroxy((R)-piperidin-3-yl)methyl)-4-methylpyridazin-3-yl)-5-(trifluoromethyl)phenol]
9 | < 0.5 | Cc1cc([C@H](O)[C@@H]2CCCN(C(C)C)C2)nnc1-c1ccc(C(F)(F)F)cc1O [Compound 41, 2-(6-((R)-hydroxy((R)-1-isopropylpiperidin-3-yl)methyl)-4-methylpyridazin-3-yl)-5-(trifluoromethyl)phenol]
10 | < 0.5 | Cc1cc(C(O)[C@@H]2CCCN(C)C2)nnc1-c1cc(F)c(C(F)(F)F)cc1O (stereo partly drawn) [Compound 42, 4-fluoro-2-(6-(hydroxy((R)-1-methylpiperidin-3-yl)methyl)-4-methylpyridazin-3-yl)-5-(trifluoromethyl)phenol]
11 | < 0.5 | CCN1CCC[C@@H]([C@@H](O)c2cc(C)c(-c3ccc(C(F)(F)F)cc3O)nn2)C1 [Compound 45, 2-(6-((R)-((R)-1-ethylpiperidin-3-yl)(hydroxy)methyl)-4-methylpyridazin-3-yl)-5-(trifluoromethyl)phenol]

same assay, conditions: Monocyte; fresh human whole blood; compound 0.5 h, 100 ng/mL LPS 3.5 h at 37° C., 5 mM ATP 45 min; IL-1b in supernatant by ELISA

Row | Structure (SMILES) | IC50 [µM]
12 | Cc1cc(C(O)C23CCCN(CC2)C3)nnc1-c1ccc(C(F)(F)F)cc1O (stereo not shown) [Compound 29, 2-(6-((1-azabicyclo[3.2.1]octan-5-yl)(hydroxy)methyl)-4-methylpyridazin-3-yl)-5-(trifluoromethyl)phenol] | 0.5 to 3
13 | Cc1cc(C(O)C2CCCCN(C)C2)nnc1-c1ccc(C(F)(F)F)cc1O (stereo not shown) [Compound 32, 2-(6-(hydroxy(1-methylazepan-3-yl)methyl)-4-methylpyridazin-3-yl)-5-(trifluoromethyl)phenol] | < 0.5
14 | Cc1cc(C(O)C23CCC(CC2)N(C)C3)nnc1-c1ccc(C(F)(F)F)cc1O (stereo not shown) [Compound 33, 2-(6-(hydroxy(2-methyl-2-azabicyclo[2.2.2]octan-4-yl)methyl)-4-methylpyridazin-3-yl)-5-(trifluoromethyl)phenol] | 0.5 to 3
15 | Cc1cc(C(O)C2CC3CC2N(C)C3)nnc1-c1ccc(C(F)(F)F)cc1O (stereo not shown) [Compound 36, 2-(6-(hydroxy(2-methyl-2-azabicyclo[2.2.1]heptan-6-yl)methyl)-4-methylpyridazin-3-yl)-5-(trifluoromethyl)phenol] | < 0.5
16 | Cc1cc([C@H](O)[C@@H]2CC[C@H]3CCC(=O)N3C2)nnc1-c1ccc(C(F)(F)F)cc1O [Compound 37, (6R,8aS)-6-((R)-hydroxy(6-(2-hydroxy-4-(trifluoromethyl)phenyl)-5-methylpyridazin-3-yl)methyl)hexahydroindolizin-3(2H)-one] | 0.5 to 3
